Measured values taken from patent US9999622B2, “Pyrazolothiazole compound and medicine comprising same” (NIPPON SHINYAKU CO., LTD., priority 2014, dated 2018).

Columns and labels:
Format in all cases: biochemical
JAK2 = molecular target: T1, JAK2 (Homo sapiens, UniProt O60674); assay: JAK tyrosine kinase inhibitory activity in the presence of 1 mM ATP (ELISA), JAK2
T1 construct: purchased Carna Biosciences, Inc
Method in brief: (§1)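 ELISA read-out: HRP-labelled anti-phosphotyrosine antibody with TMB, absorbance 450 nm, after 1 h kinase reaction at 30 °C in presence of 1 mM ATP. Kinase diluted to 7.5 nM (JAK1) or 0.75 nM (JAK2/JAK3) in Tris-HCl pH 7.5 buffer with DTT; compounds tested in duplicate.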

JAK1 = molecular target: T2, JAK1 (Homo sapiens, UniProt P23458); assay: JAK tyrosine kinase inhibitory activity in the presence of 1 mM ATP (ELISA), JAK1
T2 construct: purchased Carna Biosciences, Inc
Method in brief: as §1

JAK3 = molecular target: T3, JAK3 (Homo sapiens, UniProt P52333); assay: JAK tyrosine kinase inhibitory activity in the presence of 1 mM ATP (ELISA), JAK3
T3 construct: purchased Carna Biosciences, Inc
T3 sequence (P52333 1-1124): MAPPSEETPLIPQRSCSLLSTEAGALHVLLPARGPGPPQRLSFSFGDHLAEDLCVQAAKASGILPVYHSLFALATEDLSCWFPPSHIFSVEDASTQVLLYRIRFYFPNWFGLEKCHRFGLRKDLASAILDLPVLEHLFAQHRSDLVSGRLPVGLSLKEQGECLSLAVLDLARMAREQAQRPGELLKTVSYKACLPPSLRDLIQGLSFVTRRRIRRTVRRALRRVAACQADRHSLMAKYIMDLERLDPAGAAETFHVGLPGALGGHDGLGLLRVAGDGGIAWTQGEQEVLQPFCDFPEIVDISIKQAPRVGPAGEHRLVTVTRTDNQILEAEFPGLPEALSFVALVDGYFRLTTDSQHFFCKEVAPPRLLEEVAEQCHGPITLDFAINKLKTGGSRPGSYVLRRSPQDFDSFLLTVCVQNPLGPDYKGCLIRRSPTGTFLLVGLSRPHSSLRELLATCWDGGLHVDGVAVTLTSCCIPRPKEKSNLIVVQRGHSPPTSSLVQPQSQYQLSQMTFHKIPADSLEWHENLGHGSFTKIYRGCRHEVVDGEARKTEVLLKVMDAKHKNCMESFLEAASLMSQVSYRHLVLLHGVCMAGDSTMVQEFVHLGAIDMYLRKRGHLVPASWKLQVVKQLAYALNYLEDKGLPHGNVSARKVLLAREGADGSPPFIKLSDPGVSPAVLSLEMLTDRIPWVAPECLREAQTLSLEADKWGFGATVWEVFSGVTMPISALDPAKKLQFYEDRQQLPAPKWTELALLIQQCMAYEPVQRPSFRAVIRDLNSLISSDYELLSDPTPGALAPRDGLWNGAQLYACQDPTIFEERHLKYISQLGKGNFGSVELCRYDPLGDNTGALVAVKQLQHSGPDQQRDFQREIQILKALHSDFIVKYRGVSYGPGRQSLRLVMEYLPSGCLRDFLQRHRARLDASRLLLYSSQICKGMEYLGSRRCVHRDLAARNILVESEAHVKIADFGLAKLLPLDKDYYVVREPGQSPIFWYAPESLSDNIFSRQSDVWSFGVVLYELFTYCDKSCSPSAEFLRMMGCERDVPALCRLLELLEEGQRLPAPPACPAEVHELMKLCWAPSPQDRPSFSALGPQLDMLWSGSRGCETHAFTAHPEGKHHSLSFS
Method in brief: as §1

T1 sequence (O60674 whole entry): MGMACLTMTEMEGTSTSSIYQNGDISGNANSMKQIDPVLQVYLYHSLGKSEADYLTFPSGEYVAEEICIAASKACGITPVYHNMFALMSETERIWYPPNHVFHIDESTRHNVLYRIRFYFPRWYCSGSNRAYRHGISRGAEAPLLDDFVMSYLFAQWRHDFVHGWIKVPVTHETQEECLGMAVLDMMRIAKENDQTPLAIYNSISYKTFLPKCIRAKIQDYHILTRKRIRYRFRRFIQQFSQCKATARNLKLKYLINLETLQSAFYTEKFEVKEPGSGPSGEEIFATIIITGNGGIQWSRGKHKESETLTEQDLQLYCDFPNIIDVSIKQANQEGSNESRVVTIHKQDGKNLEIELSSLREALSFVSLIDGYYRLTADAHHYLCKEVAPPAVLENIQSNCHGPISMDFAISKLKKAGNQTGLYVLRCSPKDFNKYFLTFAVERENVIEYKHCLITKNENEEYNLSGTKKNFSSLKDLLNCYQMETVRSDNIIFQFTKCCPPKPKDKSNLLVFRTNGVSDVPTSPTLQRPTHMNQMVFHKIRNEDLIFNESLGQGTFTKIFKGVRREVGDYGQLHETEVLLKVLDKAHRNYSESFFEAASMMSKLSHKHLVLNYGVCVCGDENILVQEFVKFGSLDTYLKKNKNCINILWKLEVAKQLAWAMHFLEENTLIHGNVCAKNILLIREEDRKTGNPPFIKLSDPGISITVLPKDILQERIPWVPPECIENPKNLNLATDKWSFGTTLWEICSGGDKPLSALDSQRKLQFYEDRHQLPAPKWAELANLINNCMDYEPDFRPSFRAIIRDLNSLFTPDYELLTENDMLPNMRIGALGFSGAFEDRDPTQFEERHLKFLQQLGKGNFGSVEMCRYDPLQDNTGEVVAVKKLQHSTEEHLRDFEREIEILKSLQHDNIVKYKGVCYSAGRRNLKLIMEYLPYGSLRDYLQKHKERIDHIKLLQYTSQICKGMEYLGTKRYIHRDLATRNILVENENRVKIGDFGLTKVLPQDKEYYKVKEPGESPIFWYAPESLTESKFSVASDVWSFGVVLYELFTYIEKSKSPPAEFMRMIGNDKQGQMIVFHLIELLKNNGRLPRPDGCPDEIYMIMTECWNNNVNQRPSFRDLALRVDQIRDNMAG
T2 sequence (P23458 whole entry): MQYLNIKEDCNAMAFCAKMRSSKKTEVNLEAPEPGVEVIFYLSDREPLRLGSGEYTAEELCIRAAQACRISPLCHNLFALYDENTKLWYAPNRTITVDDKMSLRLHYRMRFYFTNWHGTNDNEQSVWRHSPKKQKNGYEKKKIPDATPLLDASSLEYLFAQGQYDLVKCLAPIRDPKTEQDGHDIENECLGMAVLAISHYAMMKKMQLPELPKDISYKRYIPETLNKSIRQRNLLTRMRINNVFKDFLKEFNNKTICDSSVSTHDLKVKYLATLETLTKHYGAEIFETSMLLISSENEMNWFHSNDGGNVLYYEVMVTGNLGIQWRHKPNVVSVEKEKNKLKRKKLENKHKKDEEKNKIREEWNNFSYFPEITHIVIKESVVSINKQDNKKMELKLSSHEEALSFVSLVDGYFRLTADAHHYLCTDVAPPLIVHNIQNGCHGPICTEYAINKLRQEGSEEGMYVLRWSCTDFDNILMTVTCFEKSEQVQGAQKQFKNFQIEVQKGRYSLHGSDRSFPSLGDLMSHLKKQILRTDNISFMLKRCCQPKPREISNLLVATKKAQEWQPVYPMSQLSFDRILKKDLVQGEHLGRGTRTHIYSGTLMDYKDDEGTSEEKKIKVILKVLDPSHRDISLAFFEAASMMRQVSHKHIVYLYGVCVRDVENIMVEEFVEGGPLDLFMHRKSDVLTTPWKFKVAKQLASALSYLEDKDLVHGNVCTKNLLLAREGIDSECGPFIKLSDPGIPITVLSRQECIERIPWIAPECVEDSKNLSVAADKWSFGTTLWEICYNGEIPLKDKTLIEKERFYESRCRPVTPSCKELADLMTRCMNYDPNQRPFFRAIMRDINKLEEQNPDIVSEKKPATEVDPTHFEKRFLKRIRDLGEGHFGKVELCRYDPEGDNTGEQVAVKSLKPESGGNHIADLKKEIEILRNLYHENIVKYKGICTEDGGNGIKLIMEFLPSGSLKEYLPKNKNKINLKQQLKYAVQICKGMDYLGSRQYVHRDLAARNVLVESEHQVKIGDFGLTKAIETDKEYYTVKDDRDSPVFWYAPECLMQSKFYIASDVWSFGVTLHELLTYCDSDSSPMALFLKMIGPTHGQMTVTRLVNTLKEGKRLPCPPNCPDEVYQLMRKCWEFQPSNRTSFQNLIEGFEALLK

Row | IC50 (JAK2) [nM] | IC50 (JAK1) [nM] | IC50 (JAK3) [nM] | SMILES
1 | > 10000 | 87 | 1200 | C[C@@H](Nc1cc(C(=O)N2CCC(NC(=O)c3ccccc3)CC2)nc(-c2cnn3ccsc23)n1)C(C)(C)C [Example 183, N-1-[6-[(2R)-3,3-dimethylbutan-2-yl]amino-2-(pyrazolo[5,1-b][1,3]thiazol-7-yl)pyrimidine-4-carbonyl]piperidin-4-ylbenzamide]
2 | > 10000 | 1100 | > 10000 | COC(=O)NC1CCN(C(=O)c2cc(Oc3ccccc3)nc(-c3cnn4ccsc34)n2)CC1 [Example 141, Methyl (1-{[6-phenoxy-2-(pyrazolo[5,1-b][1,3]thiazol-7-yl)pyrimidin-4-yl]carbonyl}piperidin-4-yl)carbamate]
3 | 1200 | 270 | 1400 | COC(=O)NC1CCN(C(=O)c2nc(-c3cnn4ccsc34)nc(N[C@@H](C)C3CC3)c2OC)CC1 [Example 145, Methyl (1-{[6-{[(1S)-1-cyclopropylethyl]amino} 5 methoxy-2-(pyrazolo[5,1-b][1,3]thiazol-7-yl)pyrimidin-4-yl]carbonyl}piperidin-4-yl)carbamate]
4 | 9100 | 110 | 7300 | C[C@@H](Nc1cc(C(=O)N2CCC(NC(=O)c3ccccc3Cl)CC2)nc(-c2cnn3ccsc23)n1)C(C)(C)C [Example 196, 2-Chloro-N-1-[6-[(2R)-3,3-dimethylbutan-2-yl]amino-2-(pyrazolo[5,1-b][1,3]thiazol-7-yl)pyrimidine-4-carbonyl]piperidin-4-ylbenzamide]
5 | 6400 | 160 | 2100 | C[C@@H](Nc1cc(C(=O)N2CCC(NC(=O)C3CC3)CC2)nc(-c2cnn3ccsc23)n1)C1CCCCC1 [Example 169, N-1-[6-[(1R)-1-cyclohexylethyl]amino-2-(pyrazolo[5,1-b][1,3]thiazol-7-yl)pyrimidine-4-carbonyl]piperidin-4-ylcyclopropanecarboxamide]

Second part, the compound before the results:

Row | SMILES | IC50 (JAK2) [nM] | IC50 (JAK1) [nM] | IC50 (JAK3) [nM]
6 | CCC(=O)NC1CCN(C(=O)c2cc(N[C@@H](C)CC)nc(-c3cnn4ccsc34)n2)CC1 [Example 131, N-[1-({6-[(2S)-Butan-2-ylamino]-2-(pyrazolo[5,1-b][1,3]thiazol-7-yl)pyrimidin-4-yl}carbonyl)piperidin-4-yl]propanamide] | 2200 | 310 | 4700
7 | C[C@@H](Nc1cc(C(=O)N2CCC(NC(=O)N(C)C)CC2)nc(-c2cnn3ccsc23)n1)C1CC1 [Example 138, 3-(1-{[6-{[(1R)-1-Cyclopropylethyl]amino}-2-(pyrazolo[5,1-b][1,3]thiazol-7-yl)pyrimidin-4-yl]carbonyl}piperidin-4-yl)-1,1-dimethylurea] | 2000 | 650 | 4300
8 | CC(C)OC(=O)NC1CCN(C(=O)c2cc(NC(C)(C)C)nc(-c3cnn4ccsc34)n2)CC1 [Example 60, Propan-2-yl (1-{[6-(tert-butylamino)-2-(pyrazolo[5,1-b][1,3]thiazol-7-yl)pyrimidin-4-yl]carbonyl}piperidin-4-yl)carbamate] | 5400 | 72 | 6100
9 | COCC(=O)NC1CCN(C(=O)c2cc(N[C@H](C)C(C)(C)C)nc(-c3cnn4ccsc34)n2)CC1 [Example 93, N-(1-{[6-{[(2R)-3,3-Dimethylbutan-2-yl]amino}-2-(pyrazolo[5,1-b][1,3]thiazol-7-yl)pyrimidin-4-yl]carbonyl}piperidin-4-yl)-2-methoxyacetamide] | 1200 | 40 | 1000
10 | COC(=O)NC1CCN(C(=O)c2cc(NC(C3CC3)C3CC3)nc(-c3cnn4ccsc34)n2)CC1 [Example 140, Methyl [1-({6-[(dicyclopropylmethyl)amino]-2-(pyrazolo[5,1-b][1,3]thiazol-7-yl)pyrimidin-4-yl}carbonyl)piperidin-4-yl]carbamate] | 770 | 280 | 340
